ChEMBL document CHEMBL1144653, “The thioesterase domain from the pimaricin and erythromycin biosynthetic pathways can catalyze hydrolysis of simple thioester substrates” (Bioorg Med Chem Lett, 2007)

Columns and labels:
[1] = test system: Saccharopolyspora erythraea; assay: Ratio of Kcat to Km in 6-deoxyerythronolide B polyketide synthase thioesterase expressed in Escherichia coli
[2] = test system: Streptomyces natalensis; assay: Ratio of Kcat to Km in pimaricin thioesterase expressed in Escherichia coli

Row | SMILES | kcat/Km [1] [M⁻¹ s⁻¹] | kcat/Km [2] [M⁻¹ s⁻¹]
1 | CC[C@H](O)[C@@H](C)C(=O)SCCNC(C)=O | 3.6 | 0.02
2 | CCC(=O)C(C)C(=O)SCCNC(C)=O (stereo not drawn) | 4.2 | 
3 | CC/C=C(\C)C(=O)SCCNC(C)=O |  | 1.3
4 | CC[C@@H](O)[C@H](C)C(=O)SCCNC(C)=O | 0.47 | 0.04
5 | CCCC(C)C(=O)SCCNC(C)=O (stereo not drawn) | 0.17 | 0.24
